Results taken from ChEMBL document CHEMBL1201862, “PubChem BioAssay data set” (2004).
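Method: 48-hour compound exposure of cells in 96-well plates, five concentrations, linear interpolation of endpoints. GI50 = concentration required for 50% inhibition of growth.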 Calls of active or inactive are those of the source. No stated cut-off is given here; in the data, active = GI50 up to about 1.1 µM and inactive = higher.

Key:
Assay in all cases: NCI-60 cell line screen, 48 h
786-0 = tested on: 786-0
A498 = tested on: A498
A549 = tested on: A549
ACHN = tested on: ACHN
BT-549 = tested on: BT-549
CAKI-1 = tested on: CAKI-1
CCRF-CEM = tested on: CCRF-CEM
COLO 205 = tested on: COLO 205
DU-145 = tested on: DU-145
EKVX = tested on: EKVX
HCT-116 = tested on: HCT-116
HCT-15 = tested on: HCT-15
HL-60 = tested on: HL-60
HOP-62 = tested on: HOP-62
HOP-92 = tested on: HOP-92
HT-29 = tested on: HT-29
Hs-578T = tested on: Hs-578T
IGROV-1 = tested on: IGROV-1
K562 = tested on: K562
KM12 = tested on: KM12
LOX IMVI = tested on: LOX IMVI
M14 = tested on: M14
MCF7 = tested on: MCF7
MDA-MB-231 = tested on: MDA-MB-231
MDA-MB-435 = tested on: MDA-MB-435
MDA-N = tested on: MDA-N
MOLT-4 = tested on: MOLT-4
Malme-3M = tested on: Malme-3M
NCI-H226 = tested on: NCI-H226
NCI-H23 = tested on: NCI-H23
NCI-H460 = tested on: NCI-H460
NCI-H522 = tested on: NCI-H522
NCI/ADR-RES = tested on: NCI/ADR-RES
OVCAR-3 = tested on: OVCAR-3
OVCAR-4 = tested on: OVCAR-4
OVCAR-5 = tested on: OVCAR-5
OVCAR-8 = tested on: OVCAR-8
PC-3 = tested on: PC-3
RPMI-8226 = tested on: RPMI-8226
RXF 393 = tested on: RXF 393
SF-268 = tested on: SF-268
SF-295 = tested on: SF-295
SF-539 = tested on: SF-539
SK-MEL-28 = tested on: SK-MEL-28
SK-MEL-2 = tested on: SK-MEL-2
SK-MEL-5 = tested on: SK-MEL-5
SK-OV-3 = tested on: SK-OV-3
SN12C = tested on: SN12C
SNB-19 = tested on: SNB-19
SNB-75 = tested on: SNB-75
SR = tested on: SR
SW-620 = tested on: SW-620
T47D = tested on: T47D
TK-10 = tested on: TK-10
U-251 = tested on: U-251
UACC-257 = tested on: UACC-257
UACC-62 = tested on: UACC-62
UO-31 = tested on: UO-31

Question: What does the source list for `CC12CCC(=O)C=C1CCC1C2CCC2(C)C(C(=O)Cn3cnc4c(=S)nc[nH]c43)CCC12` (stereo not drawn)?
Answer: GI50 (786-0): 27.2 µM (inactive); GI50 (A498): 29.9 µM (inactive); GI50 (A549): 48.1 µM (inactive); GI50 (ACHN): 40 µM (inactive); GI50 (BT-549): 28.4 µM (inactive); GI50 (CAKI-1): 34 µM (inactive); GI50 (CCRF-CEM): 25.5 µM (inactive); GI50 (COLO 205): 42 µM (inactive); GI50 (DU-145): 23.3 µM (inactive); GI50 (EKVX): 41.5 µM (inactive); GI50 (HCT-116): 35.9 µM (inactive); GI50 (HCT-15): 58.6 µM; GI50 (HL-60): 33.3 µM (inactive); GI50 (HOP-62): 18.2 µM (inactive); GI50 (HOP-92): 10 µM (inactive); GI50 (HT-29): 33 µM (inactive); GI50 (Hs-578T): 52 µM (inactive); GI50 (IGROV-1): 23.6 µM (inactive); GI50 (K562): 48.3 µM (inactive); GI50 (KM12): 37.9 µM (inactive); GI50 (LOX IMVI): 24.3 µM (inactive); GI50 (M14): 27.5 µM (inactive); GI50 (MCF7): 18.1 µM (inactive); GI50 (MDA-MB-231): 38.9 µM (inactive); GI50 (MDA-MB-435): 24.7 µM (inactive); GI50 (MDA-N): 39.2 µM (inactive); GI50 (MOLT-4): 21.6 µM (inactive); GI50 (Malme-3M): 40.5 µM (inactive); GI50 (NCI-H226): 41.5 µM (inactive); GI50 (NCI-H23): 24.5 µM (inactive); GI50 (NCI-H460): 28.8 µM (inactive); GI50 (NCI-H522): 23.4 µM (inactive); GI50 (NCI/ADR-RES): 62.4 µM (inactive); GI50 (OVCAR-3): 18.2 µM (inactive); GI50 (OVCAR-4): 17.3 µM (inactive); GI50 (OVCAR-5): > 100 µM (inactive); GI50 (OVCAR-8): 27.5 µM (inactive); GI50 (PC-3): 63.7 µM (inactive); GI50 (RPMI-8226): 25.5 µM (inactive); GI50 (RXF 393): 17.6 µM (inactive); GI50 (SF-268): 38.3 µM (inactive); GI50 (SF-295): 28.2 µM (inactive); GI50 (SF-539): 55.5 µM (inactive); GI50 (SK-MEL-28): > 100 µM (inactive); GI50 (SK-MEL-2): 41.9 µM (inactive); GI50 (SK-MEL-5): 30.6 µM (inactive); GI50 (SK-OV-3): 33.5 µM (inactive); GI50 (SN12C): 67.8 µM (inactive); GI50 (SNB-19): 23.6 µM (inactive); GI50 (SNB-75): 15.5 µM (inactive); GI50 (SR): 27.4 µM (inactive); GI50 (SW-620): 76.2 µM (inactive); GI50 (T47D): 9.23 µM (inactive); GI50 (TK-10): 36 µM (inactive); GI50 (U-251): 30.1 µM (inactive); GI50 (UACC-257): 35.6 µM (inactive); GI50 (UACC-62): 23.8 µM (inactive); GI50 (UO-31): 44.8 µM (inactive)
